The text below walks through data of PMC3433414, “Oral Administration of the Pimelic Diphenylamide HDAC Inhibitor HDACi 4b Is Unsuitable for Chronic Inhibition of HDAC Activity in the CNS In Vivo” (PLoS ONE, 2012).

Assay [1] concerns the target T1, 2 (h) (Homo sapiens, UniProt P07550).
T1 construct: purchased Cerep (Diversity Profile)
In words: Cerep binding, agonist radioligand. As to conditions: read-out: % inhibition of control specific binding. From the text:
(§1) In addition to the HDAC profiling performed, we also queried 4b for any apparent potential off-target effects, which could complicate any finding of efficacy or adverse events in vivo due to ‘polypharmacy’. This was accomplished by screening against a ‘diversity panel’ of 72 binding and 29 enzyme assays, comprised of roughly equal numbers of selective central and peripheral therapeutically relevant targets (Cerep Diversity Profile). This panel included representative targets from diverse enzyme families, G protein coupled receptors, steroid nuclear receptors, voltage- and ligand-gated ion channels. While not totally inclusive, it is a useful tool for discovery compounds to assess their viability as proof of concept molecules to specifically query a particular target. 4b was initially screened at 10 µM in duplicate. The full set of results is provided as Table S1. […] This clean in vitro profile was considered acceptable to proceed to ADME and pharmacokinetic studies.

The target of assay [2] is T2, A2A (h) (Homo sapiens, UniProt P29274).
T2 construct: purchased Cerep (Diversity Profile)
T2 sequence (P29274 whole entry): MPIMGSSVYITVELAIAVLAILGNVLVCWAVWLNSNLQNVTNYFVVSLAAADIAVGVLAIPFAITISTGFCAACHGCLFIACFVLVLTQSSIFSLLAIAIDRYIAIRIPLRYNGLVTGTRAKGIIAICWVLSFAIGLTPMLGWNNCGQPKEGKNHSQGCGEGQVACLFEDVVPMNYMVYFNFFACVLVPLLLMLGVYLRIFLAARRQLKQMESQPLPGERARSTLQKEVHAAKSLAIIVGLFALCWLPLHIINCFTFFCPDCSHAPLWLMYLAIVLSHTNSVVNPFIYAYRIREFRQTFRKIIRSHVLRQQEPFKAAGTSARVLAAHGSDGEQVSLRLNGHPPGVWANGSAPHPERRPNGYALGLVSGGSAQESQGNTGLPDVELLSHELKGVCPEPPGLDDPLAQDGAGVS
Nature of the assay: Cerep binding, agonist radioligand. As to conditions: read-out: % inhibition of control specific binding.
Text: as §1

Assay [3] concerns the target T3, A3 (h) (Homo sapiens, UniProt P0DMS8).
T3 construct: purchased Cerep (Diversity Profile)
Nature of the assay: Cerep binding, agonist radioligand. The following applies: read-out: % inhibition of control specific binding.
Text: as §1

In assay [4] the target is T4, AT2 (h) (Homo sapiens, UniProt P50052).
T4 construct: purchased Cerep (Diversity Profile)
T4 sequence (P50052 whole entry): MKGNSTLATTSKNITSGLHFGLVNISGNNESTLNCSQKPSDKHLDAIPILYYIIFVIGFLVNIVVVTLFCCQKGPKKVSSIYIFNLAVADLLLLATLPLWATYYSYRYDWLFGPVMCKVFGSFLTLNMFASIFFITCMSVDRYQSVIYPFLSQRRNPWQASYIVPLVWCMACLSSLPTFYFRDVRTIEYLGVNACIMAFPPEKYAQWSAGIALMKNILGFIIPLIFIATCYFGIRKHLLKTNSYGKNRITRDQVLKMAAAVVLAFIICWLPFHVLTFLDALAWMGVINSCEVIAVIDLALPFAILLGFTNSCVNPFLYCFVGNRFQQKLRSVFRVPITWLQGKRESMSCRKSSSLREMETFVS
Nature of the assay: Cerep binding, agonist radioligand. As to conditions: read-out: % inhibition of control specific binding.
Text: as §1

Assay [5] deals with T5, BLT1 (LTB4) (h) (Homo sapiens, UniProt Q15722).
T5 construct: purchased Cerep (Diversity Profile)
Nature of the assay: Cerep binding, agonist radioligand. As to conditions: read-out: % inhibition of control specific binding.
Text: as §1

Assay [6] has as its target T6, CB1 (h) (Homo sapiens, UniProt P21554).
T6 construct: purchased Cerep (Diversity Profile)
In words: Cerep binding, agonist radioligand. As to conditions: read-out: % inhibition of control specific binding.
Text: as §1

The target in assay [7] is T7, CB2 (h) (Homo sapiens, UniProt P34972).
T7 construct: purchased Cerep (Diversity Profile)
Nature of the assay: Cerep binding, agonist radioligand. As to conditions: read-out: % inhibition of control specific binding.
Text: as §1

For assay [8], the target named is T8, CCK2 (CCKB) (h) (Homo sapiens, UniProt P32239).
T8 construct: purchased Cerep (Diversity Profile)
T8 sequence (P32239 whole entry): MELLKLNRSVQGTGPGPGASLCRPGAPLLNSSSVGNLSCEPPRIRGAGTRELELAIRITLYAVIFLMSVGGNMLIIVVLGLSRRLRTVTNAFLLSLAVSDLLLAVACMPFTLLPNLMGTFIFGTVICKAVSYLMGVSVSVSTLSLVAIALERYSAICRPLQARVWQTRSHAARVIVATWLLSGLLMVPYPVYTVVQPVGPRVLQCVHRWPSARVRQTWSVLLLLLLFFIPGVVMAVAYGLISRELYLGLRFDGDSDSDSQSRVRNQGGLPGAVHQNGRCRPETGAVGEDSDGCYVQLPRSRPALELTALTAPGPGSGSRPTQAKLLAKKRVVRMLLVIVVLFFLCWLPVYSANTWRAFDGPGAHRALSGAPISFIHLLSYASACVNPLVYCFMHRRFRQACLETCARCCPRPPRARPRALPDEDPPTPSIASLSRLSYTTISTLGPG
Nature of the assay: Cerep binding, agonist radioligand. As to conditions: read-out: % inhibition of control specific binding.
Text: as §1

The target in assay [9] is T9, CysLT1 (LTD4) (h) (Homo sapiens, UniProt Q9Y271).
T9 construct: purchased Cerep (Diversity Profile)
T9 sequence (Q9Y271 whole entry): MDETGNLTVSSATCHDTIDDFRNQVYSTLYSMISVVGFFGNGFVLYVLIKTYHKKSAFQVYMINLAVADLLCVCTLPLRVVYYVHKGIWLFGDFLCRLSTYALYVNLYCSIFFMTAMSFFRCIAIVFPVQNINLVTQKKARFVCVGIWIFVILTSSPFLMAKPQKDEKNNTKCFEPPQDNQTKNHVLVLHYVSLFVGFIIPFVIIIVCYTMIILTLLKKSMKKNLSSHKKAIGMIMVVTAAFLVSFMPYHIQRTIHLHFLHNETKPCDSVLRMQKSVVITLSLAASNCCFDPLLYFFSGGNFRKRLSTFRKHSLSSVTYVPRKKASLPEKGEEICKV
Nature of the assay: Cerep binding, agonist radioligand. The following applies: read-out: % inhibition of control specific binding.
Text: as §1

Assay [10] concerns the target T10, EP2 (h) (Homo sapiens, UniProt P43116).
T10 construct: purchased Cerep (Diversity Profile)
In words: Cerep binding, agonist radioligand. The following applies: read-out: % inhibition of control specific binding.
Text: as §1

Assay [11] has as its system GABA (non‐selective). Nature of the assay: Cerep binding, agonist radioligand. The following applies: 10 μM.
Text: as §1

Assay [12] concerns the target T11, H3 (h) (Homo sapiens, UniProt Q9Y5N1).
T11 construct: purchased Cerep (Diversity Profile)
Nature of the assay: Cerep binding, agonist radioligand. As to conditions: read-out: % inhibition of control specific binding.
Text: as §1

Assay [13] has as its target T12, MC4 (h) (Homo sapiens, UniProt P32245).
T12 construct: purchased Cerep (Diversity Profile)
In words: Cerep binding, agonist radioligand. As to conditions: read-out: % inhibition of control specific binding.
Text: as §1

Assay [14] concerns the target T13, NK1 (h) (Homo sapiens, UniProt P25103).
T13 construct: purchased Cerep (Diversity Profile)
Nature of the assay: Cerep binding, agonist radioligand. As to conditions: read-out: % inhibition of control specific binding.
Text: as §1

Assay [15] addresses T14, NK2 (h) (Homo sapiens, UniProt P21452).
T14 construct: purchased Cerep (Diversity Profile)
In words: Cerep binding, agonist radioligand. The following applies: read-out: % inhibition of control specific binding.
Text: as §1

The target of assay [16] is T15, PPAR (h) (Homo sapiens, UniProt P37231).
T15 construct: purchased Cerep (Diversity Profile)
Nature of the assay: Cerep binding, agonist radioligand. As to conditions: read-out: % inhibition of control specific binding.
Text: as §1

The target of assay [17] is T16, PR (h) (Homo sapiens, UniProt P06401).
T16 construct: purchased Cerep (Diversity Profile)
Nature of the assay: Cerep binding, agonist radioligand. As to conditions: read-out: % inhibition of control specific binding.
Text: as §1

Assay [18] addresses T17, TRH1 (h) (Homo sapiens, UniProt P34981).
T17 construct: purchased Cerep (Diversity Profile)
Nature of the assay: Cerep binding, agonist radioligand. The following applies: read-out: % inhibition of control specific binding.
Text: as §1

Assay [19] concerns the target T18, V1a (h) (Homo sapiens, UniProt P37288).
T18 construct: purchased Cerep (Diversity Profile)
In words: Cerep binding, agonist radioligand. As to conditions: read-out: % inhibition of control specific binding.
Text: as §1

Assay [20] deals with T19, V2 (h) (Homo sapiens, UniProt P30518).
T19 construct: purchased Cerep (Diversity Profile)
T19 sequence (P30518 whole entry): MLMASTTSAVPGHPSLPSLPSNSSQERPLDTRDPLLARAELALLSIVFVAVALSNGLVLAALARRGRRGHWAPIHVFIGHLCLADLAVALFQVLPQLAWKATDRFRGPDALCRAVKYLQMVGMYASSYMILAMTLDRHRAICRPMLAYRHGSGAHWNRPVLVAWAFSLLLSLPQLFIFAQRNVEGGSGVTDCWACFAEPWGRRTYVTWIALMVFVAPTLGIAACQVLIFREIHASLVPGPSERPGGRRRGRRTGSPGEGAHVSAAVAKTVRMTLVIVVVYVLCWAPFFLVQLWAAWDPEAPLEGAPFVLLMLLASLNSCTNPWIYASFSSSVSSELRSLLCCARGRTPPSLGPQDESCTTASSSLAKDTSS
Nature of the assay: Cerep binding, agonist radioligand. The following applies: read-out: % inhibition of control specific binding.
Text: as §1

The target in assay [21] is T20, CCK1 (CCKA) (h) (Homo sapiens, UniProt P32238).
T20 construct: Cerep
T20 sequence (P32238 1-428): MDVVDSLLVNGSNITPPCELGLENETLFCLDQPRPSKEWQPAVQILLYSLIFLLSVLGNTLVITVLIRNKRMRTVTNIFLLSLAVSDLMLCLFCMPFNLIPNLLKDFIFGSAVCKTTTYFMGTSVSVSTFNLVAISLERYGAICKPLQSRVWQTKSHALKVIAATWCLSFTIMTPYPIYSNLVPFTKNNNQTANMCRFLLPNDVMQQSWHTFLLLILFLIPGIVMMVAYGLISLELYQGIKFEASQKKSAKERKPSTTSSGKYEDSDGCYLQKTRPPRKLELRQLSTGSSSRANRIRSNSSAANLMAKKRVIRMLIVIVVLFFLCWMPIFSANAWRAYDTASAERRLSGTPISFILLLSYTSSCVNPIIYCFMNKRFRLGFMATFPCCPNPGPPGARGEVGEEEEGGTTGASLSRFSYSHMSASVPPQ
In words: Cerep binding, agonist radioligand (CCK-8S). The following applies: for inhibition at 10 µM: read-out: % inhibition of control specific binding.
Text: as §1
Supplementary file pone.0044498.s001.tif: Figure S1 Displacement of CCK-8S (agonist radioligand) from the CCK1 receptor by 4b and C1. (TIF) Click here for additional data file.

Assay [22] has as its system ER (non‐selective) (h). In words: Cerep binding, agonist radioligand. More on the design: species or system human. The following applies: 10 μM.
Text: as §1

The structures appear in SMILES notation. pIC50, pKi: −log10 of the molar value. Like-named read-outs stand apart in the source and are kept apart here.

T10 sequence (P43116 whole entry): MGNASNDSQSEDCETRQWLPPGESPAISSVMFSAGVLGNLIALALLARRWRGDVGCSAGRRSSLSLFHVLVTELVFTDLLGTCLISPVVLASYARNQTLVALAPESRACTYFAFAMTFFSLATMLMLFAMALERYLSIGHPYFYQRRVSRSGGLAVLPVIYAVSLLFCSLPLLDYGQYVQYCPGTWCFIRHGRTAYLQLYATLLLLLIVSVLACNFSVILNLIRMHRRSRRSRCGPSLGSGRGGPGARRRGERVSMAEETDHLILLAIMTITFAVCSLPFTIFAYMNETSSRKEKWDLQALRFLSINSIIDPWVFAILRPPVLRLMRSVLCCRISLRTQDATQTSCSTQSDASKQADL
T13 sequence (P25103 whole entry): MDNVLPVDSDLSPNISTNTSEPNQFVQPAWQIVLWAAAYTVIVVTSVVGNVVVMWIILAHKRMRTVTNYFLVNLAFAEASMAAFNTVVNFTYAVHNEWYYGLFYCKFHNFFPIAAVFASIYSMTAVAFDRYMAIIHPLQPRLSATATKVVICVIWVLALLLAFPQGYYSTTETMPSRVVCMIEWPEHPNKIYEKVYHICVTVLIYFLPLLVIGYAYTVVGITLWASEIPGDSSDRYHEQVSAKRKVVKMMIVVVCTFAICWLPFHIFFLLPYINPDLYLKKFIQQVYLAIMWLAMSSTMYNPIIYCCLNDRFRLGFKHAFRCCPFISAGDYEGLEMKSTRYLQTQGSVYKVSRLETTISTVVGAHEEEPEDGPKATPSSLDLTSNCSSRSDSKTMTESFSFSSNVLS
T1 sequence (P07550 whole entry): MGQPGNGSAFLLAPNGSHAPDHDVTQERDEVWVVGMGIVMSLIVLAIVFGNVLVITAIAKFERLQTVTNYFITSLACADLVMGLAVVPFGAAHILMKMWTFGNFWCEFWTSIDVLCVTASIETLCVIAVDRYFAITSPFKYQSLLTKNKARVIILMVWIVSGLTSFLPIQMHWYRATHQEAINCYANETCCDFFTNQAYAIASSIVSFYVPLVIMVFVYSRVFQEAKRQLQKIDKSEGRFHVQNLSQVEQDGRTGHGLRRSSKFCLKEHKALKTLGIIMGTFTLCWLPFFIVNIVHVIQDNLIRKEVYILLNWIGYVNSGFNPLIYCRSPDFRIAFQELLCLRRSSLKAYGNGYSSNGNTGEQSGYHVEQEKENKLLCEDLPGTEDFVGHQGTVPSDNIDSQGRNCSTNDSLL
T17 sequence (P34981 whole entry): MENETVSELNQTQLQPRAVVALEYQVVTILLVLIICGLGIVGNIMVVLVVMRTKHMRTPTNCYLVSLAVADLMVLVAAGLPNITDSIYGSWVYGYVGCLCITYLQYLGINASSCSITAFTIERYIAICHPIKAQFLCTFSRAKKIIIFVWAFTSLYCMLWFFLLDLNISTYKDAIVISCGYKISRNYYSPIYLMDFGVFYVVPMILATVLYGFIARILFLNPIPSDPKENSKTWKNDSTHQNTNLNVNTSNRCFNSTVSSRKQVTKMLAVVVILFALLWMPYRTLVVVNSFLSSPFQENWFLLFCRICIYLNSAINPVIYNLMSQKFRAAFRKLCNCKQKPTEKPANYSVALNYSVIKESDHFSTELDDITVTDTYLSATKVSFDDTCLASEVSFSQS
T12 sequence (P32245 whole entry): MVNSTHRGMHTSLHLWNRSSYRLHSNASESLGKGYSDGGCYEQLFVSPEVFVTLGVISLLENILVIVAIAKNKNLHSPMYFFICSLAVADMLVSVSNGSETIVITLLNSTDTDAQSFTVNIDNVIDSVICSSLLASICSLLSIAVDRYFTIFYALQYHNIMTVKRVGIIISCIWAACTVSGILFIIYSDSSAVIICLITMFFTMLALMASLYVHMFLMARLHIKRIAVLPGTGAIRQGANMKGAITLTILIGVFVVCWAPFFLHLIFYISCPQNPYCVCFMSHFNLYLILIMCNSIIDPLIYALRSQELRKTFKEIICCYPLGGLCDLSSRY
T18 sequence (P37288 whole entry): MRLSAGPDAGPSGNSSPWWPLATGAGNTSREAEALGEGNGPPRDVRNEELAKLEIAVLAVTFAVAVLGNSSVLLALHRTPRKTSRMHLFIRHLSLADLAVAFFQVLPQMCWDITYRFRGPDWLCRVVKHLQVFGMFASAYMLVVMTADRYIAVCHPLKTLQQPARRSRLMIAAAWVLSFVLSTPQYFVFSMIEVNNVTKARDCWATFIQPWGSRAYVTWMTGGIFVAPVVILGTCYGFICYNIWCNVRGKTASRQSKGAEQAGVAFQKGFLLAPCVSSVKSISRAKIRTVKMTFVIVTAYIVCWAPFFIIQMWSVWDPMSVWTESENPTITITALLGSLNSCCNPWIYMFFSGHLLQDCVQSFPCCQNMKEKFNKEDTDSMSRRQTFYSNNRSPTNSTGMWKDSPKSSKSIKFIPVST
T14 sequence (P21452 whole entry): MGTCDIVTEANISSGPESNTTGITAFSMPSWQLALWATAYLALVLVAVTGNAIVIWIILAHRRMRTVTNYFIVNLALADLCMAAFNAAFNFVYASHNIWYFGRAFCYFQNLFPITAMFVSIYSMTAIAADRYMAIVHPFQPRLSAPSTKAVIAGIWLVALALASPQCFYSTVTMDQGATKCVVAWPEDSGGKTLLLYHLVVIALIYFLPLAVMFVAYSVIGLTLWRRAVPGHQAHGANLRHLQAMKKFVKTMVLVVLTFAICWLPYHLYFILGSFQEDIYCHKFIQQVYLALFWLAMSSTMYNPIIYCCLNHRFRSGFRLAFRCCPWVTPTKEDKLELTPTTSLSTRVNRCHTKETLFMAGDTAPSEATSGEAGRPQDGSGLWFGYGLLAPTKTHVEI

One may read the inhibition as the share of the control response that was lost under treatment. The term pKi denotes the negative decadic logarithm of the Ki, by convention in mol/L. As for `Nc1ccccc1NC(=O)CCCCCC(=O)Nc1ccccc1` [Compound 4b], the inhibition at 10 µM is 2% in assay [1]; 0% in assay [2]; 8% in [3]; 4% in assay [4]; 2% in assay [5]; 7% in [6]. The inhibition at 10 µM in assay [7] stood at 0%; in assay [8] it was 0%; in assay [9] it was 0%; in [10] it was 15%; in [12] it was 0%; in assay [13] it was 1%. In addition, the inhibition at 10 µM in [14] was found to be 7%; in [15], 5%; in [16], 13%; in [17], 0%; in assay [18], 9%; in [19], 10%. Moreover, the values for the inhibition at 10 µM in assay [20] and in assay [21] were 6% and 72%, respectively. The “% inhibition of control specific binding” value in assay [11] turned out to be 14%; in assay [22], 2%. The same compound showed a pKi in [21] (follow up concentration-effect curve) of 5.07.
The pIC50 is the IC50 on a negative log10 scale, so that one unit is a factor of ten. `O=C(CCCCCc1nc2ccccc2[nH]1)Nc1ccccc1` [Compound C1, 6-(1-H-benzo[d]imidazol-2-yl)-N-phenylhexanamide]: the inhibition at 10 µM in assay [1] (10 μM) was 2%; in [2] (10 μM), 9%; in [3] (10 μM) it was 11%; in assay [4] (10 μM), 12%; in assay [5] (10 μM) it was 0%; in assay [6] (10 μM), 18%. Also, the inhibition at 10 µM in assay [7] (10 μM) is 3%; in assay [8] (10 μM) it was 3%; in assay [9] (10 μM) it was 0%; in assay [10] (10 μM), 24%; in assay [12] (10 μM) it was 8%; in assay [13] (10 μM), 0%. The inhibition at 10 µM in assay [14] (10 μM) came to 9%; in [15] (10 μM), 9%; in [16] (10 μM), 13%; in assay [17] (10 μM), 1%; in [18] (10 μM), 1%; in [19] (10 μM), 11%. Also, the inhibition at 10 µM in assay [20] (10 μM) worked out at 5%; in [21] it was 68%. Moreover, the “% inhibition of control specific binding” value is on record as 5% in [11] and 4% in [22]. In assay [21] (read-out: IC50, displacement of CCK1 agonist radioligand binding), the negative-log IC50 (pIC50) was 5.21.
